Source: the CheMixHub viscosity set

Assay: xn = mol fraction of the nth substance listed

CCCCCCCCCCCCCCCCCCCC + CCCCCCC
viscosity [mPa·s], 101.3 kPa
Conditions | x1 = 0.2 | x1 = 0.4 | x1 = 0.499 | x1 = 0.597 | x1 = 0.796
293.2 K | 0.9382 | – | – | – | –
303.2 K | 0.8194 | 1.567 | 2.02 | – | –
313.2 K | 0.7187 | 1.327 | 1.705 | 2.145 | 2.989

CCCCOC(C)=O + CCCCCCC
298.15 K, 101.3 kPa
Conditions | viscosity [mPa·s]
x1 = 0.0364 | 0.4006
x1 = 0.1529 | 0.4135
x1 = 0.2504 | 0.4295
x1 = 0.3266 | 0.4449
x1 = 0.4281 | 0.4667
x1 = 0.5399 | 0.4974
x1 = 0.6531 | 0.5328
x1 = 0.7531 | 0.5696
x1 = 0.8609 | 0.6155
x1 = 0.9693 | 0.6674

CCCOC(=O)c1ccccc1 + CCCCCCC
viscosity [mPa·s], 101 kPa
Conditions | x1 = 0.099 | x1 = 0.1965 | x1 = 0.2952 | x1 = 0.395 | x1 = 0.4959 | x1 = 0.5924 | x1 = 0.6991 | x1 = 0.7981 | x1 = 0.8973
298.15 K | 0.444 | 0.516 | 0.603 | 0.707 | 0.842 | 1.017 | 1.254 | 1.526 | 1.853
308.15 K | 0.399 | 0.466 | 0.531 | 0.614 | 0.734 | 0.874 | 1.051 | 1.248 | 1.525
318.15 K | 0.358 | 0.408 | 0.472 | 0.55 | 0.638 | 0.754 | 0.897 | 1.064 | 1.266

CCCCOC(C)=O + CCCCCCCC
298.15 K, 101.3 kPa
Conditions | viscosity [mPa·s]
x1 = 0.0442 | 0.5144
x1 = 0.1275 | 0.5154
x1 = 0.2822 | 0.5241
x1 = 0.3556 | 0.5333
x1 = 0.4596 | 0.5465
x1 = 0.5629 | 0.5633
x1 = 0.6356 | 0.5776
x1 = 0.7305 | 0.5991
x1 = 0.8441 | 0.6298
x1 = 0.9724 | 0.6725

CCCOC(=O)c1ccccc1 + CCCCCCCC
101 kPa
Conditions | viscosity [mPa·s]
298.15 K, x2 = 0.0773 | 2.082
298.15 K, x2 = 0.1026 | 1.998
298.15 K, x2 = 0.1613 | 1.792
298.15 K, x2 = 0.2565 | 1.512
298.15 K, x2 = 0.3067 | 1.381
298.15 K, x2 = 0.3482 | 1.286
298.15 K, x2 = 0.3951 | 1.187
298.15 K, x2 = 0.4424 | 1.094
298.15 K, x2 = 0.4882 | 1.018
298.15 K, x2 = 0.5342 | 0.948
298.15 K, x2 = 0.5836 | 0.882
298.15 K, x2 = 0.6253 | 0.828
298.15 K, x2 = 0.6796 | 0.769
298.15 K, x2 = 0.727 | 0.723
298.15 K, x2 = 0.8351 | 0.633
298.15 K, x2 = 0.9429 | 0.558
308.15 K, x2 = 0.0816 | 1.645
308.15 K, x2 = 0.13 | 1.512
308.15 K, x2 = 0.1656 | 1.421
308.15 K, x2 = 0.2095 | 1.318
308.15 K, x2 = 0.2541 | 1.225
308.15 K, x2 = 0.2993 | 1.136
308.15 K, x2 = 0.3584 | 1.034
308.15 K, x2 = 0.3968 | 0.972
308.15 K, x2 = 0.4503 | 0.897
308.15 K, x2 = 0.4892 | 0.846
308.15 K, x2 = 0.5375 | 0.79
308.15 K, x2 = 0.5822 | 0.743
308.15 K, x2 = 0.6192 | 0.707
308.15 K, x2 = 0.6824 | 0.653
308.15 K, x2 = 0.7188 | 0.625
308.15 K, x2 = 0.7692 | 0.588
308.15 K, x2 = 0.8292 | 0.55
308.15 K, x2 = 0.8674 | 0.527
308.15 K, x2 = 0.9303 | 0.497
318.15 K, x2 = 0.0629 | 1.422
318.15 K, x2 = 0.09 | 1.361
318.15 K, x2 = 0.1362 | 1.261
318.15 K, x2 = 0.1878 | 1.163
318.15 K, x2 = 0.233 | 1.081
318.15 K, x2 = 0.2525 | 1.047
318.15 K, x2 = 0.33 | 0.926
318.15 K, x2 = 0.3813 | 0.856
318.15 K, x2 = 0.4267 | 0.801
318.15 K, x2 = 0.4776 | 0.744
318.15 K, x2 = 0.5373 | 0.686
318.15 K, x2 = 0.5751 | 0.653
318.15 K, x2 = 0.6208 | 0.616
318.15 K, x2 = 0.671 | 0.581
318.15 K, x2 = 0.7073 | 0.556
318.15 K, x2 = 0.7545 | 0.53
318.15 K, x2 = 0.8156 | 0.497
318.15 K, x2 = 0.8667 | 0.472
318.15 K, x2 = 0.9127 | 0.453

CCCCOC(C)=O + CCCCCCCCC
298.15 K, 101.3 kPa
Conditions | viscosity [mPa·s]
x1 = 0.0459 | 0.6602
x1 = 0.1339 | 0.6474
x1 = 0.2324 | 0.6291
x1 = 0.3814 | 0.6318
x1 = 0.4218 | 0.6304
x1 = 0.4836 | 0.6314
x1 = 0.5989 | 0.632
x1 = 0.658 | 0.6382
x1 = 0.7574 | 0.6466
x1 = 0.8386 | 0.6563
x1 = 0.9486 | 0.6723

CCCCCCCCCCCCCCCCCCCC + CCCCCCCCCC
viscosity [mPa·s], 101.3 kPa
Conditions | x2 = 0.201 | x2 = 0.4 | x2 = 0.5 | x2 = 0.6 | x2 = 0.8
293.15 K | – | – | – | – | 1.56
303.2 K | – | – | 2.4 | 2.01 | 1.31
313.2 K | 3.14 | 2.38 | 1.95 | 1.68 | 1.12

CCCCOC(C)=O + CCCCCCCCCC
298.15 K, 101.3 kPa
Conditions | viscosity [mPa·s]
x1 = 0.3547 | 0.7515
x1 = 0.4366 | 0.7352
x1 = 0.5375 | 0.7168
x1 = 0.6473 | 0.7018
x1 = 0.7119 | 0.6958
x1 = 0.8212 | 0.6854
x1 = 0.9331 | 0.6851

CCCOC(=O)c1ccccc1 + CCCCCCCCCC
101 kPa
Conditions | viscosity [mPa·s]
298.15 K, x2 = 0.0819 | 2.098
298.15 K, x2 = 0.1156 | 2.012
298.15 K, x2 = 0.1582 | 1.889
298.15 K, x2 = 0.2027 | 1.779
298.15 K, x2 = 0.2437 | 1.682
298.15 K, x2 = 0.2875 | 1.589
298.15 K, x2 = 0.3302 | 1.501
298.15 K, x2 = 0.3837 | 1.407
298.15 K, x2 = 0.4284 | 1.338
298.15 K, x2 = 0.4707 | 1.277
298.15 K, x2 = 0.5198 | 1.213
298.15 K, x2 = 0.57 | 1.156
298.15 K, x2 = 0.6127 | 1.112
298.15 K, x2 = 0.7143 | 1.02
298.15 K, x2 = 0.773 | 0.977
298.15 K, x2 = 0.8262 | 0.94
298.15 K, x2 = 0.8749 | 0.914
298.15 K, x2 = 0.9333 | 0.887
308.15 K, x2 = 0.0562 | 1.757
308.15 K, x2 = 0.1002 | 1.658
308.15 K, x2 = 0.1418 | 1.569
308.15 K, x2 = 0.1788 | 1.495
308.15 K, x2 = 0.2302 | 1.4
308.15 K, x2 = 0.264 | 1.343
308.15 K, x2 = 0.3167 | 1.256
308.15 K, x2 = 0.356 | 1.198
308.15 K, x2 = 0.3966 | 1.142
308.15 K, x2 = 0.4436 | 1.087
308.15 K, x2 = 0.4971 | 1.029
308.15 K, x2 = 0.5403 | 0.99
308.15 K, x2 = 0.5866 | 0.952
308.15 K, x2 = 0.6432 | 0.908
308.15 K, x2 = 0.6916 | 0.875
308.15 K, x2 = 0.7401 | 0.847
308.15 K, x2 = 0.7945 | 0.816
308.15 K, x2 = 0.8513 | 0.789
308.15 K, x2 = 0.9295 | 0.759
318.15 K, x2 = 0.0529 | 1.466
318.15 K, x2 = 0.0776 | 1.417
318.15 K, x2 = 0.1165 | 1.349
318.15 K, x2 = 0.161 | 1.273
318.15 K, x2 = 0.2024 | 1.211
318.15 K, x2 = 0.2495 | 1.144
318.15 K, x2 = 0.2905 | 1.092
318.15 K, x2 = 0.3397 | 1.034
318.15 K, x2 = 0.3834 | 0.987
318.15 K, x2 = 0.432 | 0.94
318.15 K, x2 = 0.4779 | 0.899
318.15 K, x2 = 0.5308 | 0.857
318.15 K, x2 = 0.5771 | 0.824
318.15 K, x2 = 0.6312 | 0.79
318.15 K, x2 = 0.6794 | 0.763
318.15 K, x2 = 0.7616 | 0.722
318.15 K, x2 = 0.8328 | 0.693
318.15 K, x2 = 0.8708 | 0.679
318.15 K, x2 = 0.906 | 0.668
